The values that follow come from patent US20250154152A1, “INHIBITORS OF NAEGLERIA FOWLERI” (Wisconsin Alumni Research Foundation, priority 2023, published 2025).

The experiment has as its system N. fowleri strain Nf69 (ATCC 30215) trophozoites. The experiment is described as follows: Determination of EC50 values against Naegleria fowleri (growth inhibition, CellTiter Glo, 48 h). Format: cell-based. Particulars: ATCC30215, N. fowleri Nf69 trophozoites, 48 h culture, 37° C., CellTiter Glo luminescence, read-out: EC50 uM against N. fowleri. As for the experimental part: N. fowleri strain Nf69 (ATCC 30215) trophozoites were cultured axenically. Amoeba were seeded at […] in 100 μL of the indicated medium in white TC-treated 96-well plates (Thermo Scientific Nunc Microwell 136101). Cells were seeded into Nelson's Complete Media (NCM, 0.17% liver infusion broth (BD Difco, Franklin Lakes, NJ), 0.17% glucose, 0.012% sodium chloride, 0.0136% potassium phosphate monobasic, 0.0142% sodium phosphate dibasic, 0.0004% calcium chloride, 0.0002% magnesium sulfate, 10% heat-inactivated fetal bovine serum (FBS), 1% penicillin-streptomycin) at 37° C. in 96-well tissue culture plates. Vehicle or compound at concentrations initially ranging from 20 to 0.375 μM were added to cells, followed by culture for 48 h (37° C., 5% CO2). Plates were equilibrated to rt for 15 min and CellTiter Glo reagent was added followed by orbital shaking for 2 min. After an additional incubation (rt, 10 min), luminescence was scored on a BioTek Synergy H1 microplate reader. Luminescence values were used to calculate percent cell growth inhibition (based on controls) for each concentration of compound tested. Averages of triplicates were calculated and fit to dose-response curves for the determination of EC50 values, using Prism 9.0 (GraphPad Software, San Diego, CA). […] Other controls included media alone, cells and media, and vehicle and media. For very potent compounds, concentration of reagent in the dose-response assays were reduced to provide an appropriate range for EC50 value resolution.
Compounds of the present technology were tested for growth inhibition of N. fowleri per General Procedure 13, above.
Background: Cellular ATP, detected with luciferase, serves as a proxy for viable cell number.

By EC50 is commonly meant the concentration needed to bring the measured effect to its halfway point.

For the compound `Cn1c([C@@H]2CCCN(CCN3CCCC3)C2)nc2cc(Cl)c(Cl)cc2c1=O` [Compound R-14dd, (R)-6,7-dichloro-3-methyl-2-(1-(2-(pyrrolidin-1-yl)ethyl)piperidin-3-yl)quinazolin-4(3H)-one], the EC50 fell in the range of 0.1 to 1 µM. For `CN1CCC[C@H]2c3nc4cc(-c5ccccc5)c(Cl)cc4c(=O)n3CC[C@H]21` (racemic) [cis-9b, (±)-(4aR,13bR)-10-chloro-4-methyl-11-phenyl-1,2,3,4,4a,5,6,13b-octahydro-8H-[1,6]naphthyridino[5,6-b]quinazolin-8-one], the EC50 fell in the range of 1 to 10 µM. The same measure for `O=c1c2cc(Cl)c(Cl)cc2nc2n1CC[C@@H]1[C@@H]2CCCN1Cc1ccncc1` (racemic) [trans-7k, (±)-(4aR,13bS)-10,11-dichloro-4-(pyridin-4-ylmethyl)-1,2,3,4,4a,5,6,13b-octahydro-8H-[1,6]naphthyridino[5,6-b]quinazolin-8-one]: 0.1 to 1 µM; for `CC(=O)CN1CCC[C@@H]2c3nc4cc(Cl)c(Cl)cc4c(=O)n3CC[C@H]21` (racemic) [trans-7cc, (±)-(4aR,13bS)-10,11-dichloro-4-(2-oxopropyl)-1,2,3,4,4a,5,6,13b-octahydro-8H-[1,6]naphthyridino[5,6-b]quinazolin-8-one]: 0.0001 to 0.1 µM; for `CN1CCC[C@@H]2c3nc4cc(Cl)c(C(F)(F)F)cc4c(=O)n3CC[C@H]21` (racemic) [trans-5s, (±)-(4aR,13bS)-11-chloro-4-methyl-10-(trifluoromethyl)-1,2,3,4,4a,5,6,13b-octahydro-8H-[1,6]naphthyridino[5,6-b]quinazolin-8-one]: 0.1 to 1 µM. With `COc1cc2nc3n(c(=O)c2cc1Cl)CC[C@@H]1[C@@H]3CCCN1CC1CCC1` (racemic) [trans-7hh, (±)-(4aR,13bS)-10-chloro-4-(cyclobutylmethyl)-11-methoxy-1,2,3,4,4a,5,6,13b-octahydro-8H-[1,6]naphthyridino[5,6-b]quinazolin-8-one], the concentration for a half-maximal effect (EC50) fell in the range of 0.0001 to 0.1 µM.

For `Cn1c([C@@H]2CCCN(Cc3cccnc3)C2)nc2cc(Cl)c(Cl)cc2c1=O` [Compound R-14v, (R)-6,7-dichloro-3-methyl-2-(1-(pyridin-3-ylmethyl)piperidin-3-yl)quinazolin-4(3H)-one], the EC50 was > 10 µM.

For `COc1cc2nc3n(c(=O)c2cc1Cl)CC[C@@H]1[C@@H]3CCCN1CC1COC1` (racemic) [trans-7dd, (±)-(4aR,13bS)-10-chloro-11-methoxy-4-(oxetan-3-ylmethyl)-1,2,3,4,4a,5,6,13b-octahydro-8H-[1,6]naphthyridino[5,6-b]quinazolin-8-one], the EC50 lay within 0.0001 to 0.1 µM.

For the compound `O=c1c2cc(Cl)c(Cl)cc2nc2n1CC[C@@H]1[C@@H]2CCCN1Cc1cnccn1` (racemic) [trans-7x, (±)-(4aR,13bS)-10,11-dichloro-4-(pyrazin-2-ylmethyl)-1,2,3,4,4a,5,6,13b-octahydro-8H-[1,6]naphthyridino[5,6-b]quinazolin-8-one], the EC50 fell in the range of 0.0001 to 0.1 µM. `CN1CCN(C)[C@H]2c3nc4ccccc4c(=O)n3CC[C@H]21` (racemic) [cis-5y, (±)-(4aR,13bR)-1,4-dimethyl-1,2,3,4,4a,5,6,13b-octahydro-8H-pyrazino[2′,3′:3,4]pyrido[2,1-b]quinazolin-8-one]: the 50% effective concentration (EC50) is > 10 µM. Turning to `COc1cc2nc3n(c(=O)c2cc1Cl)CC[C@H]1[C@H]3CCCN1CC(C)C` (single isomer, unassigned) [trans-10h-ent-2], the half-maximal effective concentration (EC50) was 0.0001 to 0.1 µM. On to `Cn1c([C@@H]2CCCN(CC3CCOCC3)C2)nc2cc(Cl)c(Cl)cc2c1=O` [Compound R-14d, (R)-6,7-dichloro-3-methyl-2-(1-((tetrahydro-2H-pyran-4-yl)methyl)piperidin-3-yl)quinazolin-4(3H)-one], for which the concentration for a half-maximal effect (EC50) was > 10 µM. For the compound `O=c1c2cc(Cl)c(Cl)cc2nc([C@@H]2CCCN(CC3COC3)C2)n1CCN1CCOCC1` [Compound R-14m, (R)-6,7-dichloro-3-(2-morpholinoethyl)-2-(1-(oxetan-3-ylmethyl)piperidin-3-yl)quinazolin-4(3H)-one], the concentration for a half-maximal effect (EC50) is > 10 µM.

In the case of `COc1cc(Cl)cc2c(=O)n3c(nc12)[C@@H]1CCCN(C)[C@@H]1CC3` (racemic) [cis-5t, (±)-(4aR,13bR)-10-chloro-12-methoxy-4-methyl-1,2,3,4,4a,5,6,13b-octahydro-8H-[1,6]naphthyridino[5,6-b]quinazolin-8-one], the EC50 was > 10 µM. The result for `O=c1c2cc(Cl)c(Cl)cc2nc2n1CC[C@@H]1[C@@H]2CCCN1Cc1ccc(Cl)cc1` (racemic) [Compound 7t, (±)-(4aR,13bS)-10,11-dichloro-4-(4-chlorobenzyl)-1,2,3,4,4a,5,6,13b-octahydro-8H-[1,6]naphthyridino[5,6-b]quinazolin-8-one] reads > 10 µM.

In the case of `CC(C)N1CCC[C@H](c2nc3cc(Cl)c(Cl)cc3c(=O)n2C)C1` [Compound S-14a, (S)-6,7-dichloro-2-(1-isopropylpiperidin-3-yl)-3-methylquinazolin-4(3H)-one], the EC50 is > 10 µM.

Consider `O=c1c2cc(Cl)c(Cl)cc2nc2n1CC[C@@H]1[C@@H]2CCCN1Cc1ccccn1` (racemic) [trans-7o, (±)-(4aR,13bS)-10,11-dichloro-4-(pyridin-2-ylmethyl)-1,2,3,4,4a,5,6,13b-octahydro-8H-[1,6]naphthyridino[5,6-b]quinazolin-8-one], for which the half-maximal effective concentration (EC50) lay within 1 to 10 µM. For the compound `CN1CCC[C@@H]2c3nc4ccc(C(F)(F)F)cc4c(=O)n3CC[C@H]21` [trans-10c-ent-1, (4aR,13bS)-4-methyl-10-(trifluoromethyl)-1,2,3,4,4a,5,6,13b-octahydro-8H-[1,6]naphthyridino[5,6-b]quinazolin-8-one], the EC50 fell in the range of 0.1 to 1 µM. The result for `CN1CCC[C@@H]2c3nc4ccc(Br)cc4c(=O)n3CC[C@H]21` (racemic) [trans-5e, (±)-(4aR,13bS)-10-bromo-4-methyl-1,2,3,4,4a,5,6,13b-octahydro-8H-[1,6]naphthyridino[5,6-b]quinazolin-8-one] reads 1 to 10 µM; that for `CN(C)CCN1CCC[C@@H]2c3nc4cc(Cl)c(Cl)cc4c(=O)n3CC[C@H]21` (racemic) [trans-7oo, (±)-(4aR,13bS)-10,11-dichloro-4-(2-(dimethylamino)ethyl)-1,2,3,4,4a,5,6,13b-octahydro-8H-[1,6]naphthyridino[5,6-b]quinazolin-8-one], 0.1 to 1 µM. The same measure for `Cn1c([C@@H]2CCCN(CCO)C2)nc2cc(Cl)c(Cl)cc2c1=O` [Compound R-14z, (R)-6,7-dichloro-2-(1-(2-hydroxyethyl)piperidin-3-yl)-3-methylquinazolin-4(3H)-one]: > 10 µM; for `CCN1CCC[C@@H]2c3nc4ccccc4c(=O)n3CC[C@H]21` (racemic) [trans-5z, (±)-(4aR,13bS)-4-ethyl-1,2,3,4,4a,5,6,13b-octahydro-8H-[1,6]naphthyridino[5,6-b]quinazolin-8-one]: > 10 µM; for `CN1CCC[C@@H]2c3nc4cccc(Cl)c4c(=O)n3CC[C@H]21` (racemic) [trans-5c, (±)-(4aR,13bS)-9-chloro-4-methyl-1,2,3,4,4a,5,6,13b-octahydro-8H-[1,6]naphthyridino[5,6-b]quinazolin-8-one]: > 10 µM.

As to `COc1cc2nc3n(c(=O)c2cc1Cl)CC[C@@H]1[C@@H]3CCCN1CC(C)C` (single isomer, unassigned) [trans-10g-ent-1], the half-maximal effective concentration (EC50) was in the range of 0.1 to 1 µM. The same measure for `COc1cccc2c(=O)n3c(nc12)[C@H]1CCCN(C)[C@@H]1CC3` (racemic) [trans-5u, (±)-(4aR,13bS)-12-methoxy-4-methyl-1,2,3,4,4a,5,6,13b-octahydro-8H-[1,6]naphthyridino[5,6-b]quinazolin-8-one]: > 10 µM; for `COc1ccc2nc([C@@H]3CCCN(CC4COC4)C3)n(C)c(=O)c2c1` [Compound R-14s, (R)-6-methoxy-3-methyl-2-(1-(oxetan-3-ylmethyl)piperidin-3-yl)quinazolin-4(3H)-one]: > 10 µM; for `Cc1ccc(-c2ccc3nc4n(c(=O)c3c2)CC[C@@H]2[C@@H]4CCCN2C)cn1` (racemic) [trans-9a, (±)-(4aR,13bS)-4-methyl-10-(6-methylpyridin-3-yl)-1,2,3,4,4a,5,6,13b-octahydro-8H-[1,6]naphthyridino[5,6-b]quinazolin-8-one]: > 10 µM. The result for `COc1cc2nc3n(c(=O)c2cc1C#N)CC[C@@H]1[C@@H]3CCCN1C` (racemic) [trans-7jj, (±)-(4aR,13bS)-11-methoxy-4-methyl-8-oxo-2,3,4,4a,5,6,8,13b-octahydro-1H-[1,6]naphthyridino[5,6-b]quinazoline-10-carbonitrile] reads 1 to 10 µM. Regarding `CN1CCO[C@H]2c3nc4ccc(C(F)(F)F)cc4c(=O)n3CC[C@H]21` (racemic) [cis-5x, (±)-(4aR,13bR)-4-methyl-10-(trifluoromethyl)-3,4,4a,5,6,13b-hexahydro-[1,4]oxazino[2′,3′:3,4]pyrido[2,1-b]quinazolin-8(2H)-one], the 50% effective concentration (EC50) was > 10 µM. For the compound `Cn1c([C@@H]2CCCN(CC3COC3)C2)nc2ccc(C#N)cc2c1=O` [Compound R-14o, (R)-3-methyl-2-(1-(oxetan-3-ylmethyl)piperidin-3-yl)-4-oxo-3,4-dihydroquinazoline-6-carbonitrile], the EC50 was > 10 µM.
